From patent publication US20170253601A1, “Substituted Pyrrolidine Compounds” (EPIZYME, INC., priority 2014, published 2017)

Target: T1, SMYD2 (Homo sapiens, UniProt Q9NRG4)
T1 construct: Full length SMYD2 (NP 064582.2) was cloned; His6 (N, cleaved yes); FLAG (N); made in house; host or cells: Sf9 insect cells
Assay: SMYD2 Biochemical Assay (3H-SAM, biotinylated peptide substrate, Flashplate)
Conditions: IC50 values are an average of n = 1 to n = 50; read-out: SMYD2 Biochem IC50 (μM)*
In short: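 Methyltransferase activity tracked as 3H transfer from 10 nM 3H-SAM to 60 nM biotinylated peptide, counted after streptavidin Flashplate capture and normalised to DMSO and 1000 uM SAH controls. Enzyme: 1.5 nM full-length Sf9-expressed SMYD2, 30 min compound pre-incubation at room temperature, in Bicine pH 7.6 buffer with 2% DMSO; reactions quenched with 600 uM unlabelled SAM; IC50 from 3- or 4-parameter fit.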

T1 sequence (Q9NRG4 whole entry): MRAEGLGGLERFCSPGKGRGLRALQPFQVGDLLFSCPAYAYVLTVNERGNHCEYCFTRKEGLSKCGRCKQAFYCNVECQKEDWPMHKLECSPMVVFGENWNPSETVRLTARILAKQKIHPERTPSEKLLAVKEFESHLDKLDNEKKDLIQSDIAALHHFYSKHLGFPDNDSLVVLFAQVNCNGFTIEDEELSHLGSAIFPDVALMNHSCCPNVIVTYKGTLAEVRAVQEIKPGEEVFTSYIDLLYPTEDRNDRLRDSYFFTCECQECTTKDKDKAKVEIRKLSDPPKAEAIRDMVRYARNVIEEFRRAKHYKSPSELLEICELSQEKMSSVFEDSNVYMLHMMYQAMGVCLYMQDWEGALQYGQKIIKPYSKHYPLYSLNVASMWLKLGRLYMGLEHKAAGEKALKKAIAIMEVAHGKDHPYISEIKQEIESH

C[C@H]1CN(Cc2ccnc3ccccc23)C[C@H]1NC(=O)c1cc(C2CC2)on1 (racemic) [compound 197, (±)-cis-5-cyclopropyl-N-[4-methyl-1-(quinolin-4-ylmethyl)pyrrolidin-3-yl]-1,2-oxazole-3-carboxamide] and C[C@@H]1CN(Cc2ccc3ncccc3c2)C[C@H]1NC(=O)c1cc(C2CC2)on1 (racemic) [compound 204, (±)-trans-5-cyclopropyl-N-[4-methyl-1-(quinolin-6-ylmethyl)pyrrolidin-3-yl]-1,2-oxazole-3-carboxamide] cannot be ordered by IC50: over 50 µM for the first, over 50 µM for the second.

Going from C[C@H]1CN(Cc2ccc(-c3cc(Cl)ccc3Cl)o2)C[C@H]1NC(=O)c1cc(C2CC2)on1 (racemic) [compound 198, (±)-cis-5-cyclopropyl-N-(1-{[5-(2,5-dichloro-phenyl)furan-2-yl]methyl}-4-methyl-pyrrolidin-3-yl)-1,2-oxazole-3-carboxamide] to C[C@H]1CN(Cc2ccc(Cl)cc2)C[C@H]1NC(=O)c1cc(C2CC2)on1 (racemic) [compound 210, (±)-cis-N-[1-[(4-chloro-phenyl)methyl]-4-methylpyrrolidin-3-yl]-5-cyclopropyl-1,2-oxazole-3-carboxamide], the IC50 falls from over 50 µM to 4.32 µM. The second is the more potent here.

Going from CC[C@H]1CN(C(C)C)C[C@@H]1NC(=O)c1cc(C2CC2)on1 (racemic) [compound 199, (±)-trans-5-cyclopropyl-N-[4-ethyl-1-(propan-2-yl)pyrrolidin-3-yl]-1,2-oxazole-3-carboxamide] to CC(C)[C@H]1CN(C(C)C)C[C@H]1NC(=O)c1cc(C2CC2)on1 (racemic) [compound 219, (±)-cis-N-[1,4-bis(propan-2-yl)pyrrolidin-3-yl]-5-cyclopropyl-1,2-oxazole-3-carboxamide], the IC50 rises from 25.7 µM to over 50 µM. The first is the more potent here.

CC(C)N1C[C@@H](C)[C@H](NC(=O)c2cc(C(C)(C)C)on2)C1 (racemic) [compound 200, (±)-trans-5-tert-butyl-N-[4-methyl-1-(propan-2-yl)pyrrolidin-3-yl]-1,2-oxazole-3-carboxamide] and CC(C)N1C[C@H](C)[C@H](NC(=O)c2cc(C(C)(C)C)on2)C1 (racemic) [compound 201, (±)-cis-5-tert-butyl-N-[4-methyl-1-(propan-2-yl)pyrrolidin-3-yl]-1,2-oxazole-3-carboxamide] cannot be ordered by IC50: over 50 µM for the first, over 50 µM for the second.

Going from C[C@H]1CN(CC2CCC2)C[C@H]1NC(=O)c1cc(C2CC2)on1 (racemic) [compound 202, (±)-cis-N-[1-(cyclobutyl-methyl)-4-methyl-pyrrolidin-3-yl]-5-cyclopropyl-1,2-oxazole-3-carboxamide] to C[C@@H]1CN(CC(F)F)C[C@H]1NC(=O)c1cc(C2CC2)on1 (racemic) [compound 215, (±)-trans-5-cyclopropyl-N-[1-(2,2-difluoro-ethyl)-4-methylpyrrolidin-3-yl]-1,2-oxazole-3-carboxamide], the IC50 rises from 1.63 µM to over 50 µM. The first is the more potent here.

Going from C[C@@H]1CN(Cc2c[nH]c3cc(Cl)ccc23)C[C@H]1NC(=O)c1cc(C2CC2)on1 (racemic) [compound 203, (±)-trans-N-[1-[(6-chloro-1H-indol-3-yl)methyl]-4-methyl-pyrrolidin-3-yl]-5-cyclopropyl-1,2-oxazole-3-carboxamide] to Cc1ccc2[nH]cc(CN3C[C@H](C)[C@H](NC(=O)c4cc(C5CC5)on4)C3)c2c1 (racemic) [compound 214, (±)-cis-5-cyclopropyl-N-[4-methyl-1-[(5-methyl-1H-indol-3-yl)methyl]pyrrolidin-3-yl]-1,2-oxazole-3-carboxamide], the IC50 falls from 48.3 µM to 29.5 µM (1.6-fold). The second is the more potent here.

Going from C[C@H]1CN(CC2CCN(C(=O)OC(C)(C)C)CC2)C[C@H]1NC(=O)c1cc(C2CC2)on1 (racemic) [compound 205, (±)-cis-tert-butyl 4-{[3-(5-cyclopropyl-1,2-oxazole-3-amido)-4-methylpyrrolidin-1-yl]methyl}piperidine-1-carboxylate] to COC(=O)CN1C[C@@H](C)[C@H](NC(=O)c2cc(C3CC3)on2)C1 (racemic) [compound 220, (±)-trans-methyl 2-[3-(5-cyclopropyl-1,2-oxazole-3-amido)-4-methylpyrrolidin-1-yl]acetate], the IC50 rises from 7.69 µM to over 50 µM.

First: C[C@H]1CN(Cc2cnc3ncccn23)C[C@H]1NC(=O)c1cc(C2CC2)on1 (racemic) [compound 211, (±)-cis-5-cyclopropyl-N-[1-{imidazo[1,2-a]pyrimidin-3-ylmethyl}-4-methylpyrrolidin-3-yl]-1,2-oxazole-3-carboxamide]
Second: C[C@H]1CN(Cc2cc(Cl)cnc2Cl)C[C@H]1NC(=O)c1cc(C2CC2)on1 (racemic) [compound 232, (±)-cis-5-cyclopropyl-N-[1-[(2,5-dichloro-pyridin-3-yl)methyl]-4-methylpyrrolidin-3-yl]-1,2-oxazole-3-carboxamide]
The IC50 of the first is higher: over 50 µM for the first, 36.1 µM for the second.

Going from COc1ccc(CN2C[C@H](C)[C@H](NC(=O)c3cc(C4CC4)on3)C2)c(OC)c1 (racemic) [compound 212, (±)-cis-5-cyclopropyl-N-[1-[(2,4-dimethoxy-phenyl)methyl]-4-methylpyrrolidin-3-yl]-1,2-oxazole-3-carboxamide] to COc1cccc(CN2C[C@H](C)[C@H](NC(=O)c3cc(C4CC4)on3)C2)c1OC (racemic) [compound 233, (±)-cis-5-cyclopropyl-N-[1-[(2,3-dimethoxy-phenyl)methyl]-4-methylpyrrolidin-3-yl]-1,2-oxazole-3-carboxamide], the IC50 falls from 5.23 µM to 2.27 µM (2.3-fold). The second is the more potent here.

Compared with CC(C)CCN1C[C@H](C)[C@H](NC(=O)c2cc(C3CC3)on2)C1 (racemic) [compound 213, (±)-cis-5-cyclopropyl-N-[4-methyl-1-(3-methylbutyl)pyrrolidin-3-yl]-1,2-oxazole-3-carboxamide], C[C@H]1CN(CC(F)F)C[C@H]1NC(=O)c1cc(C2CC2)on1 (racemic) [compound 216, (±)-cis-5-cyclopropyl-N-[1-(2,2-difluoroethyl)-4-methylpyrrolidin-3-yl]-1,2-oxazole-3-carboxamide] is higher in IC50: 1.62 µM for the first, over 50 µM for the second. The first is the more potent here.

Compared with CC(C)N1C[C@H](C)[C@H](NC(=O)c2cc(C3(C)CC3)on2)C1 (racemic) [compound 217, (±)-cis-N-[4-methyl-1-(propan-2-yl)pyrrolidin-3-yl]-5-(1-methyl-cyclopropyl)-1,2-oxazole-3-carboxamide], CC(C)[C@@H]1CN(C)C[C@@H]1NC(=O)c1cc(C2CC2)on1 (racemic) [compound 218, (±)-cis-5-cyclopropyl-N-[1-methyl-4-(propan-2-yl)pyrrolidin-3-yl]-1,2-oxazole-3-carboxamide] is 1.7-fold higher in IC50: 22.3 µM for the first, 37.4 µM for the second.

Compared with COC(=O)CN1C[C@H](C)[C@H](NC(=O)c2cc(C3CC3)on2)C1 (racemic) [compound 221, (±)-cis-methyl 2-[3-(5-cyclopropyl-1,2-oxazole-3-amido)-4-methylpyrrolidin-1-yl]acetate], COc1cccc(CN2C[C@H](C)[C@H](NC(=O)c3cc(C4CC4)on3)C2)c1 (racemic) [compound 223, (±)-cis-5-cyclopropyl-N-[1-[(3-methoxy-phenyl)methyl]-4-methylpyrrolidin-3-yl]-1,2-oxazole-3-carboxamide] is lower in IC50: over 50 µM for the first, 4.96 µM for the second. The second is the more potent here.

Going from C[C@H]1CN(Cc2ccc3nonc3c2)C[C@H]1NC(=O)c1cc(C2CC2)on1 (racemic) [compound 222, (±)-cis-N-[1-(2,1,3-benzoxadiazol-5-ylmethyl)-4-methyl-pyrrolidin-3-yl]-5-cyclopropyl-1,2-oxazole-3-carboxamide] to COc1ccc(CN2C[C@H](C)[C@H](NC(=O)c3cc(C4CC4)on3)C2)cc1 (racemic) [compound 228, (±)-cis-5-cyclopropyl-N-[1-[(4-methoxy-phenyl)methyl]-4-methylpyrrolidin-3-yl]-1,2-oxazole-3-carboxamide], the IC50 falls from 41.6 µM to 3.63 µM (11-fold). The second is the more potent here.

CC(C)c1cc(C(=O)N[C@H]2C[C@@H](CNC(=O)C3CCCCC3)N(C3CC3)C2)no1 (racemic) [compound 224, (±)-cis-N-[5-[(cyclohexyl-formamido)methyl]-1-cyclopropylpyrrolidin-3-yl]-5-(propan-2-yl)-1,2-oxazole-3-carboxamide] and CC(C)c1cc(C(=O)N[C@H]2C[C@@H](CNC(=O)c3ccccc3)N(C3CC3)C2)no1 (racemic) [compound 227, (±)-cis-N-[1-cyclo-propyl-5-[(phenyl-formamido)methyl]pyrrolidin-3-yl]-5-(propan-2-yl)-1,2-oxazole-3-carboxamide] cannot be ordered by IC50: over 50 µM for the first, over 50 µM for the second.

Going from C[C@@H]1CN(C2CCS(=O)(=O)CC2)C[C@H]1NC(=O)c1cc(C2CC2)on1 (racemic) [compound 225, (±)-trans-5-cyclopropyl-N-[1-(1,1-dioxo-1??- thian-4-yl)-4-methyl-pyrrolidin-3-yl]-1,2-oxazole-3-carboxamide] to C[C@H]1CN(Cc2ccc(N3CCCC3)cc2)C[C@H]1NC(=O)c1cc(C2CC2)on1 (racemic) [compound 229, (±)-cis-5-cyclopropyl-N-[4-methyl-1-{[4-(pyrrolidin-1-yl)phenyl]methyl}pyrrolidin-3-yl]-1,2-oxazole-3-carboxamide], the IC50 falls from over 50 µM to 3.32 µM.

First: C[C@H]1CN(Cc2ccc(N(C)C)cc2)C[C@H]1NC(=O)c1cc(C2CC2)on1 (racemic) [compound 230, (±)-cis-5-cyclopropyl-N-[1-{[4-(dimethyl-amino)phenyl]methyl}-4-methylpyrrolidin-3-yl]-1,2-oxazole-3-carboxamide]
Second: C[C@H]1CN(Cc2c(Br)cncc2Br)C[C@H]1NC(=O)c1cc(C2CC2)on1 (racemic) [compound 231, (±)-cis-5-cyclopropyl-N-[1-[(3,5-dibromo-pyridin-4-yl)methyl]-4-methylpyrrolidin-3-yl]-1,2-oxazole-3-carboxamide]
The IC50 of the first is lower: 4.08 µM for the first, over 50 µM for the second.
